Experimental data from patent publication US20150175545A1, “Preparation Method of Fluoro-Substituted Deuterated Diphenylurea” (SUZHOU ZELGEN BIOPHARMACEUTICAL CO., LTD, priority 2012, published 2015).
Several values for one entry are separate records, joined by “and”; a condition that tells them apart may be missing. Equal entries are not always repeated. Where two headings read alike, the source gives them in different places.

Columns and labels:
[1] = target: c-Kit protein tyrosine kinase (Homo sapiens, UniProt P10721); assay: ELISA inhibition of c-Kit protein tyrosine kinase at the molecular level; assay type: biochemical; conditions: for results (inhibition efficacy): c-Kit and PDGFR-β, efficacy if inhibition rate at 10^-5 mol/L greater than 50%
Chain of c-Kit protein tyrosine kinase (P10721 26-976): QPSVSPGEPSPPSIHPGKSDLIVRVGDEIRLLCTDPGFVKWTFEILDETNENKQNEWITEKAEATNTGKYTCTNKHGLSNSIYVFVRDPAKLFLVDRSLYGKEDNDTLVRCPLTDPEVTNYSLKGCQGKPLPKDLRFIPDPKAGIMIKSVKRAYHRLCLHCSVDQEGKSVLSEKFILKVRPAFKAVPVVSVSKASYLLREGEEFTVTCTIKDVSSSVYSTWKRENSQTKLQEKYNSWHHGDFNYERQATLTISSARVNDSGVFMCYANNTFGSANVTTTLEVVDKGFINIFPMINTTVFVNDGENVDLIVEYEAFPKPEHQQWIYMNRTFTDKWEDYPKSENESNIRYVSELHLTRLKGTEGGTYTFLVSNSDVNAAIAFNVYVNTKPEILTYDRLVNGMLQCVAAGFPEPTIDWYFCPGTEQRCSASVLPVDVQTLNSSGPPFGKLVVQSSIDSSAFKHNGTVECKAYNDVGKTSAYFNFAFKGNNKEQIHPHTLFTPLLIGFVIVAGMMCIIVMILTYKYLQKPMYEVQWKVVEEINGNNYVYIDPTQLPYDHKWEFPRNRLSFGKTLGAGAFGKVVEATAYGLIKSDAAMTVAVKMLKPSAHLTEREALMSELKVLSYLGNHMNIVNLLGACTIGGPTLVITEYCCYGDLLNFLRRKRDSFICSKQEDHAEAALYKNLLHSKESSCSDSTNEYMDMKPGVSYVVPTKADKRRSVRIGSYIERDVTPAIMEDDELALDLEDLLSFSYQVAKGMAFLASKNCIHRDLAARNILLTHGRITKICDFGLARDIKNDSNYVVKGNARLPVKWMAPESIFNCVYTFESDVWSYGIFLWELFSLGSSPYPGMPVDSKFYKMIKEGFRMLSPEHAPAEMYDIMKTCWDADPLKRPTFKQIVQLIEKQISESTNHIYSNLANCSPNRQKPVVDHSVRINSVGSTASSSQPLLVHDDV
Protocol: (§1) The activity of diphenylurea compounds for inhibiting c-Kit, PDGFR-β protein tyrosine kinases on molecular level was tested by Enzyme-Linked Immunosorbent Assay (ELISA).
(§2) Reacting substrate Poly(Glu,Tyr)4:1 was bought from Sigma; Monoclonal antibody against tyrosine phosphate PY99 was bought from Santa Cruz; Horseradish peroxidase labeled sheep-against-rat IgG was bought from Calbiochem; ATP, DTT, OPD were bought from Amresco; microplates were bought from Corning; Su11248 was bought from Merk.
(§3) See Roskoski, R., Jr. Sunitinib: a VEGF and PDGF receptor protein kinase and angiogenesis inhibitor. Biochem Biophys Res Commun, 356: 323-328, 2007. The details comprise:
Kinase reaction substrate Poly(Glu,Tyr)4:1 was diluted to 20 μg/ml by potassium-free PBS, and the microplates were coated. Diphenylurea samples to be tested were added in the wells of the coated microplates (the samples to be tested were made from the stock solution of 10^−2 M in DMSO, and diluted to the desired concentration with reaction buffer before use. The resulted solution was added into the wells to get the final concentration of 10^−5 mol/L in 100 μL reaction system). At the same time, the positive control compound Su11248 was added to the positive control wells.
ATP solution diluted with reaction buffer (the final concentration of ATP is 5 μM) and tyrosine kinase for testing diluted with reaction buffer were added in turn. The total volume of reaction system was 100 μL. At the same time, the negative control wells and the control wells without enzyme were set up.
The reaction system was placed in a wet box and shaked for 1 h at 37° C. by shaking shielding from light. After the reaction was completed, plates were washed three times with T-PBS. Antibody PY99 was added (100 μL/well), and plates were shaked for 30 min at 37° C. After the reaction was completed, the plates were washed with three times T-PBS. Horseradish peroxidase labeled sheep-against-rat IgG was added (100 μL/well), and the plates were shaked for 30 min at 37° C. After the reaction was completed, the plates were washed with T-PBS for three times. OPD developing liquid was added (100 μL/well), and reacted for 1-10 min at room temperature shielding from light. 50 μL of 2 M H2SO4 was added to quench the reaction. A492 value was determined using wavelength-adjustable microplates reader VERSAmax.
(§4) The inhibition ratio of samples can be calculated by the following formula: […]

[2] = target: PDGFR-β protein tyrosine kinase (Homo sapiens, UniProt P09619); assay: ELISA inhibition of PDGFR-β protein tyrosine kinase at the molecular level; assay type: biochemical; conditions: 10 μM compound, ATP 5 μM, mean of duplicate experiments
Chain of PDGFR-β protein tyrosine kinase (P09619 33-1106): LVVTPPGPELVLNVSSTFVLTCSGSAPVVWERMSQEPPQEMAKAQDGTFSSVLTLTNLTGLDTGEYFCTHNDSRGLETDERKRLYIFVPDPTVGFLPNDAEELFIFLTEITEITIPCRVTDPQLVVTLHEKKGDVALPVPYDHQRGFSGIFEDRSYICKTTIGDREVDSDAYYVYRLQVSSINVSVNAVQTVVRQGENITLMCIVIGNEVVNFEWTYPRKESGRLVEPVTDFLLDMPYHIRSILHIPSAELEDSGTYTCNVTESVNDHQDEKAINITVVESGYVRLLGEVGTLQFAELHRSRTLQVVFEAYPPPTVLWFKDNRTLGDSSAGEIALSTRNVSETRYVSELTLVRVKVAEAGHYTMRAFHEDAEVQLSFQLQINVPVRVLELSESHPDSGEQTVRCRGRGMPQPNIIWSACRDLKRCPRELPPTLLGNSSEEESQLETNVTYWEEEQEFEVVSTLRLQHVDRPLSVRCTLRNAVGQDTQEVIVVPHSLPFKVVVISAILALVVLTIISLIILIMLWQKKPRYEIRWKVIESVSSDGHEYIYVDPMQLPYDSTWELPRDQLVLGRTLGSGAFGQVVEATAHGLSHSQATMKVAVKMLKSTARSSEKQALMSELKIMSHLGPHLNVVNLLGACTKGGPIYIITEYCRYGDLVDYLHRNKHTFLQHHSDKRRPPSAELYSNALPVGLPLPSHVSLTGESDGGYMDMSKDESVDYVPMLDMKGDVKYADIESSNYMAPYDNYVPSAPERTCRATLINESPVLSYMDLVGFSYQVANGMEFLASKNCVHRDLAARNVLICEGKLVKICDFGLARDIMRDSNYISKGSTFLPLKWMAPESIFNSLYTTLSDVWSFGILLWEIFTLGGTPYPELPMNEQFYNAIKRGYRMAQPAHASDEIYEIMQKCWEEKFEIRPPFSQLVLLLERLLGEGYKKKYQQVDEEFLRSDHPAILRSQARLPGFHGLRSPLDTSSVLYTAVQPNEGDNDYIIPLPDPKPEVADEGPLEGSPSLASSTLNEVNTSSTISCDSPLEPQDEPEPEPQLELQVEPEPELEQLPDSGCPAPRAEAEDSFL
Protocol: as §1, §2, §3
Kinase reaction substrate Poly(Glu,Tyr)4:1 was diluted to 20 μg/ml by potassium-free PBS, and the microplates were coated. […]
The reaction system was placed in a wet box and shaked for 1 h at 37° C. by shaking shielding from light. […] A492 value was determined using wavelength-adjustable microplates reader VERSAmax.
as §4

[3] = Pharmacokinetic evaluation of CM4306, CM4308 and CM4309 in rats (mixed solution, intragastric); assay type: in vivo, SD rats; conditions: 4 mg/kg intragastric, mixed solution in PEG400, plasma; for MRT inf: read-out: MRT(0-∞)
Protocol: Blood samples were collected at 0.25, 0.5, 1.0, 2.0, 3.0, 5.0, 7.0, 9.0, 24, 36, 48 and 72 h after the administration.

[4] = tested on: human liver cancer cell SMMC-7721; assay: Nude mice xenograft model inoculated with SMMC-7721 cells, tumor growth inhibition; assay type: in vivo; conditions: 30 mg/kg intragastric every day for 2 weeks; for relative tumor increment rate T/C %: effective if T/C ≦40% and p<0.05
Protocol: The establishment of tumor-bearing nude mice xenograft model: SMMC-7721 cells in logarithmic growth period were cultured. After cell number was counted, the cells were suspended in 1×PBS, and the concentration of the cell suspension was adjusted to 1.5×10^7/ml. The tumor cells were inoculated (s.c.) 3×10^6/0.2 ml/mice under the right armpit of nude mice. 45 nude mice were inoculated in total. When the tumor size reached 30-130 mm^3, 34 mice were randomly divided into different groups. […] Administration of testing drugs was started. […] Observation continued upon the withdraw till the tumor volume was larger than 2000 mm^3. The weight of animals and tumor size were tested twice a week during the experiment. […] The formula for calculating the tumor volume (TV) is: TV=a×b^2/2, wherein a and b independently and respectively represent the length and the breadth of the tumor. The formula for calculating the relative tumor volume (RTV) is: RTV=Vt/V0, wherein V0 is the tumor volume at the beginning of the administration, and Vt is […] when measured. The index for evaluating the antitumor activity is relative tumor increment rate T/C (%), and the calculation formula is: T/C (%)=(TRTV/CRTV)×100%, wherein, TRTV is the RTV for the treatment group, and CRTV is the RTV for the negative control group. Evaluation standard for efficacy: it is effective if the relative tumor increment rate T/C (%) is ≦40% and p<0.05 by statistics analysis.

[5] = male, SD, rat, plasma, po, 4 mg/kg, individual rat
[6] = male, SD, rat, plasma, po, 4 mg/kg, mean value of 3 rats
[7] = male, SD, rat, plasma, po, 4 mg/kg, mean value of 3 rats, read-out: Cmax
[8] = male, SD, rat, plasma, po, 4 mg/kg, mean value of 3 rats, read-out: Tmax

results (inhibition efficacy) [1] | AUC(0-∞) ([3]; individual rat, 4 mg/kg) | Cmax ([3]; individual rat, 4 mg/kg) | MRT(0-∞) ([3]; individual rat, 4 mg/kg) | Tmax ([3]; individual rat, 4 mg/kg) | AUC(0-inf) [3, 5] [ng·h/mL] | half-life [3, 5] [h] | MRT inf [3, 5] [h] | AUC(0-inf) [3, 6] [ng·h/mL] | Cmax [3, 7] [ng/mL] | MRT inf [3, 6] [h] | Tmax [3, 8] [h] | AUC(0-t) ([3]; mean value of 3 rats) [ng·h/mL] | Structure (SMILES) | AUC(0-t) ([3]; individual rat, 4 mg/kg) | T1/2 ([3]; individual rat, 4 mg/kg) | half-life [3, 6] [h] | relative tumor increment rate T/C % [4] | also measured
effective |  |  |  |  |  |  |  |  |  |  |  |  | CCN(CC)CCNC(=O)c1c(C)[nH]c(/C=C2\C(=O)Nc3ccc(F)cc32)c1C [Su11248] |  |  |  |  | % Inhibition ratio for inhibiting tyrosine kinase at 10 μM, c-Kit mean value ([1]; 10 μM compound, ATP 5 μM, mean of duplicate experiments): 90.2%; % Inhibition ratio for inhibiting tyrosine kinase at 10 μM, PDGFR-β mean value [2]: 93.9%
effective | 41544 ng·h/mL and 25008 ng·h/mL | 642 ng/mL and 1568 ng/mL and 651 ng/mL | 23.2 h and 23.9 h | 8.0 h and 2.0 h | 24600 | 14.8 | 28.2 | 30400 | 954 | 25.1 | 6 | 29414 | CNC(=O)c1cc(Oc2ccc(NC(=O)Nc3ccc(Cl)c(C(F)(F)F)c3)cc2)ccn1 [CM4306, 4-(4-(3-(4-chloro-3-(trifluoromethyl)phenyl]ureido)-phenoxy)-(N-methyl)picolinamide] | 23431 ng·h/mL and 40239 ng·h/mL and 24571 ng·h/mL |  |  |  | 
effective | 9541 ng·h/mL and 18973 ng·h/mL | 378 ng/mL and 279 ng/mL and 817 ng/mL | 24.1 h and 21.7 h | 8.0 h and 6.0 h and 1.0 h | 11600 | 10.1 | 21 | 13400 | 491 | 22.2 | 5 | 13119 | CNC(=O)c1cc(Oc2ccc(NC(=O)Nc3ccc(Cl)c(C(F)(F)F)c3)c(F)c2)ccn1 [CM4308, 4-(4-(3-(4-chloro-3-(trifluoromethyl)phenyl]ureido)-3-fluorophenoxy)-N-methylpicolinamide] | 11473 ng·h/mL and 9327 ng·h/mL and 18558 ng·h/mL | 11.7 h and 11.4 h | 11.1 | 51.6% | 

Structure (SMILES) | results (inhibition efficacy) [1] | AUC(0-∞) ([3]; individual rat, 4 mg/kg) | Cmax ([3]; individual rat, 4 mg/kg) | MRT(0-∞) ([3]; individual rat, 4 mg/kg) | Tmax ([3]; individual rat, 4 mg/kg) | AUC(0-inf) [3, 5] [ng·h/mL] | half-life [3, 5] [h] | MRT inf [3, 5] [h] | AUC(0-inf) [3, 6] [ng·h/mL] | Cmax [3, 7] [ng/mL] | MRT inf [3, 6] [h] | Tmax [3, 8] [h] | AUC(0-t) ([3]; mean value of 3 rats) [ng·h/mL] | AUC(0-t) ([3]; individual rat, 4 mg/kg) | T1/2 ([3]; individual rat, 4 mg/kg) | half-life [3, 6] [h] | relative tumor increment rate T/C % [4] | also measured
[2H]C([2H])([2H])NC(=O)c1cc(Oc2ccc(NC(=O)Nc3ccc(Cl)c(C(F)(F)F)c3)c(F)c2)ccn1 [CM4309, 4-(4-(3-(4-chloro-3-(trifluoromethyl)phenyl]ureido)-3-fluorophenoxy)-N-(methyl-d3)picolinamide] | effective | 41702 ng·h/mL and 28899 ng·h/mL | 933 ng/mL and 530 ng/mL | 39.1 h and 36.7 h | 24.0 h and 1.0 h and 8.0 h | 27400 | 26.7 | 45.9 | 32700 | 644 | 40.6 | 11 | 27804 | 22220 ng·h/mL and 35592 ng·h/mL and 25601 ng·h/mL | 23.4 h and 20.9 h | 23.7 | 27.0% and < 40% | Cmax ([3]; male, SD, rat, plasma, po, 4 mg/kg, individual rat, read-out: Cmax): 470 ng/mL; effect on tumor growth (tumor volume vs control group) ([4]; p<0.01 vs control group): significant effect in inhibiting tumor growth
